1 molecule from PMC12778052 (Science Advances, 2026) can be followed below.

The target of one assay is T1, human Nectin-4 (Homo sapiens, UniProt Q96NY8).
T1 construct: purchased R&D Systems 2659-N4-050
T1 sequence (Q96NY8 32-349 limits assumed): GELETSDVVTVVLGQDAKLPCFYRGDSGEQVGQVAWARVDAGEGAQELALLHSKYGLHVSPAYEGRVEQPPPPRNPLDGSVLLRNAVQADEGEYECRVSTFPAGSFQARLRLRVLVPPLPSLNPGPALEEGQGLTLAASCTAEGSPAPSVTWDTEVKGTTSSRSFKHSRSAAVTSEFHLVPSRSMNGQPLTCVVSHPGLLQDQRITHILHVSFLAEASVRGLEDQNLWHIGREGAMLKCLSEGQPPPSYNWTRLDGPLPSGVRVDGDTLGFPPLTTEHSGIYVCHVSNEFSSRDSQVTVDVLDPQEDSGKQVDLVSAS
Put plainly: SPR affinity for recombinant human Nectin-4. The class given is binding. Conditions: human Nectin-4. On the procedure:
(§1) The affinity of AJ647 for human and mouse Nectin-4 recombinant proteins was evaluated by SPR. The experiments were conducted using a Biacore T200 instrument with a CM5 chip at 25°C. The ligands used were His-tagged human Nectin-4 (R&D Systems, catalog no. 2659-N4-050, 44 kDa, 0.2 mg/ml stock concentration) and mouse Nectin-4 proteins (R&D Systems, catalog no. 3116-N4-050, 45 kDa, 0.2 mg/ml stock concentration), which were immobilized onto the CM5 chip. AJ647 (3057.5 Da, 10 mM stock concentration) was used as the analyte, which flowed over the ligand-immobilized surface. FC2 and FC4 was used as the experimental flow cell, while FC1 and FC3 served as the reference. An anti-His antibody (1 mg/ml stock concentration) was immobilized on all flow cells using standard amine coupling chemistry. […] Human Nectin-4 was captured onto FC2 at a level of ~600 RU, with a 1:20 dilution and 10 μg/ml diluted concentration in PBS-P. Mouse Nectin-4 was captured onto FC4 at a level of 600 RU, with a 1:20 dilution and 10 μg/ml diluted concentration in PBS-P. The theoretical maximum response (Rmax ) values were calculated on the basis of the captured response values (table S1), assuming a 1:1 interaction mechanism. […] All association and dissociation kinetics were evaluated by 1:1 kinetics model fitting.

In another assay the test system is UC14 cells. Put plainly: In vitro binding of [^68Ga]AJ647 to UC14 cells. It is filed as cell-based. Conditions: 1 × 10^6 cells, ~1 μCi, 30 min, 4°C, means ± SD, n = 4. Here is the method:
(§2) In vitro binding of [^68Ga]AJ647 to T24, SCaBER, RT112, UC9, UC14, and HT1376 cells was determined by incubating 1 × 10^6 cells with ~1 μCi of [^68Ga]AJ647 for 30 min at 4°C. After incubation, cells were washed three times with ice-cold PBS containing 0.1% Tween 20 and counted on an automated gamma counter. All cell radioactivity uptake studies were performed in quadruplicate for each cell line and repeated three times.

Another assay concerns UC9 cells. Put plainly: In vitro binding of [^68Ga]AJ647 to UC9 cells. Conditions: 1 × 10^6 cells, ~1 μCi, 30 min, 4°C, means ± SD, n = 4. The class given is cell-based. Here is the method: as §2
For another assay, the target named is T2, mouse Nectin-4 (Mus musculus, UniProt Q8R007).
T2 construct: purchased R&D Systems 3116-N4-050
T2 sequence (Q8R007 31-347 limits assumed): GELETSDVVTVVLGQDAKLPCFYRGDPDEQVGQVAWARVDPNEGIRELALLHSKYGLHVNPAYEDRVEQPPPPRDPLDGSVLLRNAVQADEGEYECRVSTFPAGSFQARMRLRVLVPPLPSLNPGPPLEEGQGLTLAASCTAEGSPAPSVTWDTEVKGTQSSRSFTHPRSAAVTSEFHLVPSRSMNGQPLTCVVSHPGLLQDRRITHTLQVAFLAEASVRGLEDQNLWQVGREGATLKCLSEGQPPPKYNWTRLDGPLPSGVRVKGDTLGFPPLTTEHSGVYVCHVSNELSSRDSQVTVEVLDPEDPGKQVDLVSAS
Put plainly: SPR affinity for recombinant mouse Nectin-4. It is filed as binding. Conditions: mouse Nectin-4. On the procedure: as §1

With `CSCC[C@@H]1NC(=O)[C@@H]2CSCCC(=O)N3CN(CN(C3)C(=O)CCSC[C@H](NC(=O)CCOCCOCCOCCOCCOCCOCCOCCOCCOCCOCCOCCOCCNC(=O)CN3CCN(CC(=O)O)CCN(CC(=O)O)CC3)C(=O)N3CCC[C@H]3C(=O)N[C@@H](Cc3cccc4ccccc34)C(=O)N[C@@H](CC(=O)O)C(=O)N2)C(=O)CCSC[C@@H](C(N)=O)NC(=O)[C@H](Cc2c[nH]c3ccccc23)NC(=O)[C@@H]2C[C@@H](O)CN2C(=O)[C@@H]2CCCN2C(=O)[C@H]([C@@H](C)O)NC(=O)[C@H](CO)NC(=O)[C@H](Cc2c[nH]c3ccccc23)NC(=O)[C@@H](CC(=O)O)NC(=O)[C@H](CCCCNC(=N)N)NC1=O` [[^68Ga]AJ647, metal not drawn], the koff (in general, the rate constant with which the complex falls apart) at human Nectin-4 was found to be 0.0106 ± 0.00159 s⁻¹; at mouse Nectin-4 it was 0.0101 ± 0.00295 s⁻¹. For the same molecule, the “[^68Ga]AJ647 uptake” value amounted to 3.0 ± 0.42 %IA in the assay with UC14 cells and 2.2 ± 0.48 %IA with UC9 cells.
